# From patent US20100130579A1, “CANCER THERAPY” (Georgetown University, priority 2006, published 2010)
# System: cyclin D1
# Assay: Gene array (microarray) analysis of cyclin D1 expression
# Assay type: cell-based, human
# Conditions: PC3 cells, 2 μg/ml, 2 days
# Experimental: FIGS. 2A-2D. Mahanine down-regulates cyclin D1 expression in prostate and other cancer cells. FIG. 2A: Microarray analyses showing PC3 cells treated with (2 μg/ml) mahanine (+) or vehicle (−) for 2 days and RNA was extracted and microarray analysis was performed. FIG. 2B and FIG. 2C: PC3 (left panel) and LNCaP (right panel) cells were treated with 0, 1, 2 and 3 μg/ml mahanine for 3 days. RNA was extracted, and RT-PCR assays were performed to detect cyclin D1 and GAPDH mRNAs. Representative photograph from an experiment that was repeated thrice. Quantitative estimations of relative levels of cyclin D1 mRNAs (lower panel) were determined by densitometric measurements of RT-PCR gels from three independent experiments after normalization with GAPDH. […]
# Microarray analysis: Total RNA was isolated from […] cells treated with or without mahanine using TRIZOL reagent (Invitrogen Corp., Carlsbad, Calif.). […] RNA was evaluated by electrophoresis before continuing with probe synthesis and hybridization. […] Following repetitive washing in saline-sodium citrate/SDS, hybridized cDNA probes were detected by chemiluminescence. […] Bound biotinylated cDNA probe was detected with alkaline phosphatase-conjugated streptavidin and CDP-Star chemiluminescent substrate (SuperArray). […]
smiles,measurement,value
CC(C)=CCC[C@@]1(C)C=Cc2c(c(C)cc3c2[nH]c2cc(O)ccc23)O1 [mahanine],cyclin D1 expression (gene array),down-regulated the expression of cyclin D1
